Laboratory results as given in patent US4851338A, “Method for diagnosing the presence of bacteria” (Biocarb AB, priority 1982, dated 1989).

Tests used:
[1] = tested on: NK-cells activity (lymphocytes) against K-562 cells; test: Inhibition of NK-cells activity (chromium release cytotoxicity of lymphocytes against K-562); format: cell-based, human; settings: for % specific cytotoxicity: ratio 20:1
Method: Lymphocytes isolated from peripheral blood drained from normal donors have the ability of exerting a cytotoxic, (i.e. cell killing activity against certain types of cells in culture. In the instant example there is used a human leukemia cell line called K-562 as a target cell for such cytolytic activity.
Method: K-562 cells intracellularly labelled with radioactive chromium are incubated with effector cells (lymphocytes) for 4 hours at 37° C. The cytotoxic effect is measured as the quantity of isotope released in relation to remaining isotope in the target cells. For details see Malmstrom, P., Jonsson, Å, and Sjogren, H.O. "Countercurrent distribution of lymphocytes from human peripheral blood in an aqueous two-phase system. II. Separation into subsets of lymphocytes with distinctive functions". Cell Immunol. 53:51-64, 1980. For studying inhibiting substances effector cells (6×10^6 cells/ml) are preincubated with the respective oligosaccharides diluted in cultivating medium for half an hour at 37° C. After washing with centrifugation the effector cells are transferred directly to the target cells.

[2] = tested on: haemagglutination between sheep erythrocytes and S. saprophyticus bacteria (Mc 2 and Mc 194); test: Inhibition of haemagglutination of sheep erythrocytes with Staphylococcus saprophyticus; format: cell-based; settings: for minimal effective concentration: Staphylococcus saprophyticus, Erythrocyte, read-out: Minimum inhibitory con.; for Minimum inhibitory con.: Inhibition of haemagglutination, S. saprophyticus Mc 2 and Mc 194, 2 HU bacteria
Method: In the tests the bacteria S. saprophyticus strains, both isolated from urine from patents having urinary tract infection, were used. The bacteria were cultivated in tryptone broth over night, pelletized by means of centrifugation and washed twice with PBS, pH 7.2. Haemagglutination was performed using erythrocytes from sheep obtained from sheep blood and washed twice with 0.85 % saline.
In the haemagglutination-indication experiments microtitre plates (Limbo Sc. Comp. Inc) were used. 25 μl of bacterial suspension were titrated in PBS by two-step titre steps, 25 μl of 1% erythrocyte suspension being then added. The haemagglutination titre was determined after incubation of the plates for 2-4 hours in room temperature.
In the inhibition experiments serial dilutions of the relevant inhibitor (50 μl/well) and 25 μl of bacterial suspension diluted to contain 2 HU haemagglutinating units of bacteria were used. The plates were incubated for 30 minutes at 37° C., 25 μl of the erythrocyte suspension being then added to each well.

[3] = tested on: adhesion of S. saprophyticus to urinary epithelial cells; test: Inhibition of adherence of S. saprophyticus to urinary epithelial cells; format: cell-based, Staphylococcus saprophyticus
Method: Cells from urinary epithelium were suspended in cell cultivation medium RPMI 1640 (Flow Ltd) to a concentration of 10^5 cells/ml.
Microorganisms of the type S. saprophyticus were suspended in RPMI 1640 to a concentration of 10^9 bacteria/ml. Oligosaccharides which were tested for their ability of preventing adhesion of S. saprophyticus to urinary epithelial cells were dissolved in RPMI 1640 to a concentration of 5 mg/ml. In the experiments 1 ml of the oligosaccharide solution was incubated with 0.1 ml bacterial suspension at 37° C. for 30 minutes. Urinary epithelial cells were incubated with the bacterial suspension incubated in advance as described above with oligosaccharide solution for 45 minutes at 37° C. As a control there was used a bacterial suspension preincubated with 1 ml RPMI 1640.
Incubated samples were filtrated through a 12μ filter and washed 3 times with PBS. The filter was pressed against microscope slides for a few seconds, the slides being then fixed in methanol for 10 minutes. The slides were dried in air and coloured with acridine orange for 2 minutes. The slides were washed, dried in air and studies in fluorescence microscope. The number of bacteria per cell was counted. In each experiment 50 cells were counted.

[4] = 0.3 mg/ml oligosaccharide, experiment 1 (without inhibitor 22.3)
[5] = 0.3 mg/ml oligosaccharide, experiment 2 (without inhibitor 32.0)
[6] = 1 mg/ml oligosaccharide, experiment 1 (without inhibitor 22.3)
[7] = 1 mg/ml oligosaccharide, experiment 2 (without inhibitor 32.0)
[8] = 3 mg/ml oligosaccharide, experiment 1 (without inhibitor 22.3)
[9] = 3 mg/ml oligosaccharide, experiment 2 (without inhibitor 32.0)

In the case of `CC(=O)NC1C(O)CC(OC2C(O)C(CO)OC(OC3C(CO)OC(O)C(O)C3O)C2O)(C(=O)O)OC1C(O)C(O)CO` (stereo not drawn) [3'siallyl-lactose, α-NeuNAcp-(2-3)-β-Galp-(1-4)-Glc, reference compound], the “% specific cytotoxicity” value [1, 4] is reported as 23.9%, the “% specific cytotoxicity” value [1, 5] is reported as 28.7% and the “% specific cytotoxicity” value [1, 6] is reported as 25.2%. For the same molecule, the “% specific cytotoxicity” value [1, 7] was 19.7%, the “% specific cytotoxicity” value [1, 8] was 20.0% and the “% specific cytotoxicity” value [1, 9] was 19.1%. For the same molecule, the minimal effective concentration [2] was > 2500 µg/mL.

`CC(=O)NC1C(O)CC(OCC2OC(OC3C(CO)OC(O)C(O)C3O)C(O)C(O)C2O)(C(=O)O)OC1C(O)C(O)CO` (stereo not drawn) [6'siallyl-lactose, α-NeuNAcp-(2-6)-β-Galp-(1-4)-Glc, reference compound] was tested, and the “% specific cytotoxicity” value [1, 4] was 21.3%, the “% specific cytotoxicity” value [1, 5] was 20.2% and the “% specific cytotoxicity” value [1, 6] was 15.8%. The “% specific cytotoxicity” value [1, 7] was 17.2%, the “% specific cytotoxicity” value [1, 8] was 9.6% and the “% specific cytotoxicity” value [1, 9] was 15.1%. For the same molecule, the minimal effective concentration [2] was > 2500 µg/mL.

For `CC(=O)N[C@H]1[C@H](O[C@@H]2[C@@H](OC[C@H]3O[C@@H](O[C@H]4[C@H](O)[C@@H](NC(C)=O)C(O)O[C@@H]4CO)[C@@H](O)[C@@H](O[C@H]4O[C@H](CO)[C@@H](O)[C@H](O)[C@@H]4O[C@@H]4O[C@H](CO)[C@@H](O[C@@H]5O[C@H](CO)[C@H](O)[C@H](O)[C@H]5O)[C@H](O)[C@H]4NC(C)=O)[C@@H]3O)O[C@H](CO)[C@@H](O)[C@@H]2O)O[C@H](CO)[C@@H](O[C@@H]2O[C@H](CO)[C@H](O)[C@H](O)[C@H]2O)[C@@H]1O` (stereo partly drawn) [GM1 -octa], the “% specific cytotoxicity” value [1, 4] was 16.1%, the “% specific cytotoxicity” value [1, 5] was 28.0% and the “% specific cytotoxicity” value [1, 6] was 11.3%. For the same molecule, the “% specific cytotoxicity” value [1, 7] was 25.0%, the “% specific cytotoxicity” value [1, 8] was 1.7% and the “% specific cytotoxicity” value [1, 9] was 12.8%. The “cytolytic effect after preincubation with the oligosaccharides” value ([1]; in concentrations down to 0.3 mg/ml) was “inhibited” and the minimal effective concentration [2] was 200 µg/mL.

`OC[C@H]1O[C@H](O[C@H]2[C@@H](O)[C@@H](CO)OC(O)[C@@H]2O)[C@H](O)[C@@H](O)[C@H]1O` (stereo partly drawn) [α-Galp-(1-3)-Gal] was tested, and the minimal effective concentration [2] was > 2500 µg/mL.

With `OC[C@H]1O[C@H](O[C@@H]2[C@H](O)[C@@H](O)C(O)O[C@@H]2CO)[C@H](O)[C@@H](O)[C@H]1O` (stereo partly drawn) [α-Galp-(1-4)-Gal] the minimal effective concentration [2] was > 2500 µg/mL.

In the case of `OC[C@H]1O[C@H](O[C@@H]2[C@H](O)[C@@H](O)[C@H](O[C@H]3[C@H](O)[C@@H](O)C(O)O[C@@H]3CO)O[C@@H]2CO)[C@H](O)[C@@H](O)[C@H]1O` (stereo partly drawn) [α-Galp-(1-4)-β-Galp-(1-4)-Glc], the minimal effective concentration [2] is reported as > 2500 µg/mL.

In the case of `CC(=O)N[C@H]1[C@H](O[C@@H]2[C@H](O)[C@@H](O)[C@H](O[C@H]3[C@H](O)[C@@H](O)C(O)O[C@@H]3CO)O[C@@H]2CO)O[C@H](CO)[C@@H](O[C@@H]2O[C@H](CO)[C@H](O)[C@H](O)[C@H]2O)[C@@H]1O` (stereo partly drawn) [β-Gal-(1-4)-β--GNAc-(1-4)-β-Gal-(1-4)-Glc], the “reduction of the number of adhering bacteria” value ([3]; oligosaccharide 5 mg/ml, preincubated 30 min at 37° C., then 45 min with cells, vs control without oligosaccharides) is reported as ~96%.

For `CC(=O)N[C@H]1[C@H](O[C@H]2[C@@H](O)[C@@H](CO)O[C@H](O[C@@H]3[C@H](O)[C@@H](O)[C@H](O[C@H]4[C@H](O)[C@@H](O)C(O)O[C@@H]4CO)O[C@@H]3CO)[C@@H]2O)O[C@H](CO)[C@H](O)[C@@H]1O` (stereo partly drawn) [β-GalNAcp-(1-3)-α-Galp-(1-4)-β-Galp-(1-4)-Glc], the minimal effective concentration [2] was > 2500 µg/mL.

`OC[C@H]1O[C@@H](O[C@H]2[C@@H](O)[C@@H](CO)OC(O)[C@@H]2O)[C@H](O)[C@@H](O)[C@H]1O` (stereo partly drawn) [β-Galp-(1-3)-Gal] was tested, and the minimal effective concentration [2] was > 2500 µg/mL.

In the case of `CC(=O)N[C@H]1[C@H](O[C@H]2[C@@H](O)[C@@H](CO)O[C@@H](O[C@H]3[C@H](O)[C@@H](O)C(O)O[C@@H]3CO)[C@@H]2O)O[C@H](CO)[C@@H](O)[C@@H]1O[C@@H]1O[C@H](CO)[C@H](O)[C@H](O)[C@H]1O` (stereo partly drawn) [β-Galp-(1-3)-β-GNAcp-(1-3)-β-Galp-(1-4)-Glc], the minimal effective concentration [2] is reported as > 2500 µg/mL.

`OC[C@H]1O[C@@H](O[C@H]2[C@@H](O)[C@@H](CO)O[C@@H](O[C@H]3[C@@H](O)[C@@H](CO)OC(O)[C@@H]3O)[C@@H]2O)[C@H](O)[C@@H](O)[C@H]1O` (stereo partly drawn) [β-Galp-(1-3)-β-Galp-(1-3)-Gal] was tested, and the minimal effective concentration [2] was > 2500 µg/mL.

In the case of `OC[C@H]1O[C@@H](O[C@H]2[C@H](O)[C@@H](O)C(O)O[C@@H]2CO)[C@H](O)[C@@H](O)[C@H]1O` (stereo partly drawn) [β-Galp-(1-4)-Glc, reference compound], the minimal effective concentration [2] is reported as > 2500 µg/mL and the “reduction of the number of adhering bacteria (in words)” value ([3]; oligosaccharide 5 mg/ml, in comparison with the control test without oligosaccharides) is reported as “did not reduce the number of adhering bacteria”.

Molecule `CO[C@@H]1O[C@H](CO)[C@@H](O[C@@H]2O[C@H](CO)[C@H](O)[C@H](O)[C@H]2O)[C@H](O)[C@H]1NC(C)=O` [β-Galp-(1-4)-β-GNAcp-(1-0)-CH3] has a minimal effective concentration [2] of 250 µg/mL and an inhibition at 5000 µg/mL ([3]; Staphylococcus saprophyticus, Epithelial cell, 0.75 h, read-out: reduction of the number of adhering bacteria) of ~95%.

`CC(=O)N[C@H]1[C@H](O[C@H]2[C@@H](O)[C@@H](CO)O[C@@H](O[C@H]3[C@H](O)[C@@H](O)C(O)O[C@@H]3CO)[C@@H]2O)O[C@H](CO)[C@@H](O[C@@H]2O[C@H](CO)[C@H](O)[C@H](O)[C@H]2O)[C@@H]1O` (stereo partly drawn) [β-Galp-(1-4)-β-GNAcp-(1-3)-β-Galp-(1-4)-Glc] gave a minimal effective concentration [2] of 250 µg/mL.

With `OC[C@H]1O[C@@H](OC[C@H]2OC(O)[C@H](O)[C@@H](O)[C@H]2O)[C@H](O)[C@@H](O)[C@H]1O` (stereo partly drawn) [β-Galp-(1-6)-Gal] the minimal effective concentration [2] was > 2500 µg/mL.

With “Asialotransferrin (human): Asialotransferrin (human)” the Minimum inhibitory con. [2] was 250 µg/mL.

“Transferrin (human): Transferrin (human)” was tested, and the Minimum inhibitory con. [2] was > 2500 µg/mL.

B1: Fetuin: Fetuin (protein, UniProt P12763 19-359, looked up)
Alpha-2-HS-glycoprotein: IPLDPVAGYKEPACDDPDTEQAALAAVDYINKHLPRGYKHTLNQIDSVKVWPRRPTGEVYDIEIDTLETTCHVLDPTPLANCSVRQQTQHAVEGDCDIHVLKQDGQFSVLFTKCDSSPDSAEDVRKLCPDCPLLAPLNDSRVVHAVEVALATFNAESNGSYLQLVEISRAQFVPLPVSVSVEFAVAATDCIAKEVVDPTKCNLLAEKQYGFCKGSVIQKALGGEDVRVTCTLFQTQPVIPQPQPDGAEAEAPSAVPDAAGPTPSAAGPPVASVVVGPSVVAVPLPLHRAHYDLRHTFSGVASVESSSGEAFHVGKTPIVGQPSIPGGPVRLCPGRIRYFKI
For B1, the Minimum inhibitory con. [2] was > 2500 µg/mL.
